Data: US20060153913A1, “Solid formulation with improved solubility and stability, and method for producing said formulation” (priority 2004, published 2006)

Legend:
Assay type in all cases: physicochemical
[1] = Dissolution test, second method of Japanese Pharmacopoeia (paddle method); details: after 60 minutes; paddle method 50 rpm, 0.1 w/v % sodium lauryl sulfate solution 900 mL, 37° C.
Description: Dissolution test was performed following the second method of Japanese Pharmacopoeia dissolution test method (paddle method, 50 rpm) using a 0.1 w/v % deaerated sodium lauryl sulfate solution (900 mL, 37° C.). The tablets (133.00 mg/tablet; containing 5 mg of bulk drug) produced in Example 1 were put into the test solution as they were. For referential control, the bulk drug consisting crystal was put into the test solution as it was. The temperature was adjusted to 37±0.1° C.

[2] = Stability test under heating condition at 80° C. (HPLC impurities, powder X-ray diffraction)
Description: Each of the powder formulations obtained in Example 3 was tested under heating condition at 80° C. The purity was determined by high performance liquid chromatography (measured wave length; 242 nm). The state of crystallization was estimated by powder X-ray diffraction.

[3] = Stability test under humid condition at 40° C.; details: Immediately after Formulation
Description: Each of the powder formulations obtained in Example 3 was tested under heating condition at 40° C. under humid condition.

[4] = 80° C., Open Condition, After 3 days

With CCOC(=O)C(COC(=O)Cc1ccc(NC(=O)c2ccccc2-c2ccc(C(F)(F)F)cc2)c(C(=O)N(C)C)c1)(C(=O)OCC)c1ccccc1 [MTP Inhibiting Compound, diethyl 2-(2-{3-dimethylcarbamoyl-4-[(4′-trifluoromethyl-biphenyl-2-carbonyl)-amino]-phenyl}-acetoxymethyl)-2-phenyl-malonate] the dissolution [1] was “did not dissolve”, the “Impurities Max (%)” value [2, 4] was 0.08% and the “Impurities Total (%)” value [2, 4] was 0.24%. For the same compound, the “Impurities Max (%)” value ([2]; Immediately after Formulation) was 0.28%, the “Impurities Total (%)” value ([2]; Immediately after Formulation) was 0.40% and the “Impurities Max (%)” value [3] was 0.11%. The “Impurities Total (%)” value [3] was 0.40%.
